From the NIST ThermoML archive (doi:10.1016/j.fluid.2010.06.017)
Numbers after ± are expanded uncertainties.

Test: wn = mass fraction of the nth substance listed
Conditions: 373.15 K; 34470 kPa; Liquid; Vibrating tube method; w1 = 0.4623

`FC(F)(F)C1(F)C(F)(F)C(F)(F)C(F)(F)C(F)(C(F)(F)F)C1(F)F` (stereo unspecified) + C gave a mass density of 1399 ± 17 kg/m3.
